# How the values were obtained:
# [1] = Microsomal clearance (rat liver microsomal intrinsic clearance); type: in vitro ADME; details: rat liver microsomes, 37 °C, NADPH, 0-30 minutes
# Description: The metabolic and physicochemical properties of the [2]-ladderanes compared to aryl/cyclohexyl matched pairs were also studied (compare 35 with 36/37 and 38 with 39/40) (Fig. 5). These structures were chosen because they bear functional groups that are common in drug discovery, yet unlikely to pose any inherent risks. In addition, solubility, permeability, rat liver microsomal intrinsic clearance, and LogP were selected to be evaluated as these are common parameters modulated in drug discovery programs to improve the pharmacokinetic/pharmacodynamic and safety profiles of potential drug candidates.
# The following procedure was adapted from the literature. 14 The experiment was performed in 96-well plate format with shaking incubation at 37 °C and 750 rpm. The compounds in 10 mM DMSO were diluted 1:1000 in 100 mM potassium phosphate (Kpi) buffer to 10 µM. 30 µL of the compound solution was added to 120 µL of pretreated microsomal protein for 150 µL enzyme-substrate mixture. Reactions were initiated by addition of 150 µL of cofactor solution (2 mM NADPH, 4 mM MgCl2 in 100 mM KPi). At specific reaction time points (0, 5, 15 and 30 minutes), reaction aliquots (25 µL) were removed and terminated by addition to acetonitrile (150 µL) containing mass spectrometry internal standard (0.4 µM glyburide). The samples were then centrifuged at 500g, and the supernatants analyzed by LC-MS/MS for quantitation of remaining target compound. The percentage of target compound remaining, relative to 0 minutes, was used to estimate in vitro elimination-rate constant (kmic). […]
# [2] = High throughput equilibrium solubility (miniaturized shake flask); type: physicochemical; details: phosphate buffer, aqueous buffer, thermodynamic from solid; pH 6.8 phosphate media, shaken 16 hours
# Experimental: High Throughput Equilibriu m Solubility:
# The following procedure was adapted from the literature.15 Equilibrium solubility was determined using a miniaturized shake flask approach as described in Zhou et al. Aliquots of 10 mM DMSO compound solution were dispensed in triplicate (2.5 µL/sample) in 96-well polypropylene plates using a Labcyte Echo 525 acoustic dispenser. The DMSO was removed using a GeneVac HT4X evaporator for 15 minutes, 35 °C and full vacuum. Media (pH 6.8 Di-Sodium Hydrogen Phosphate/Potassium Hydrogen Phosphate) was added to each well to achieve a target concentration of 1 mM. The plate was sealed and shaken for 16 hours, then centrifuged at 1000g for phase separation. An aliquot of supernatant was transferred to a new plate, centrifuged a second time at 100g, and then the final supernatant was further diluted for subsequent analysis. Quantification of solubility was performed using a Sound Analytics LS1 and Sciex 6500+ MS/MS and an 8-point calibration curve. […]
# [3] = Permeability (MDCK), apparent permeability apical-to-basolateral; type: in vitro ADME; details: dog, with bafilomycin 100 nM in both compartments, MDCK-KO cells, pH 7.4, 2 h, read-out: Papp A-Bx10^-6
# Experimental: The following procedure was adapted from the literature.16 To determine the apparent permeability (Papp), MDCK knockout (MDCK-KO) cells were seeded on Transwell 96 -well plate inserts (Corning, Tewksbury, MA,) at a density of 1.5 × 10^5 cells/cm2 in high glucose DMEM with GlutaMAX containing 10% […]
# v/v heat deactivated FBS and 1% v/v penicillin-streptomycin (all from Gibco) and grown for 4 days at 37 °C in an atmosphere of 5% CO 2 and 95% relative humidity. Stock solutions of the compounds were prepared in dimethyl sulfoxide (DMSO) (10 mM), and each compound was dosed in triplicate at a final concentration of 10 μM in Hanks’ balanced salt solution (HBSS) at pH 7.4 containing 10 mM 4-(2-hydroxyethyl)-1-piperazineethanesulfonic acid (HEPES) and 0.02% w/v bovine serum albumin (BSA). A solution without the compounds and containing 5% BSA was added to the acceptor. Bafilomycin (100 nM) was added to both compartments. Cells were incubated with the compounds for 2 h at 37 °C, and flux was measured in the apical-to-basolateral direction. Aliquots from the apical, basal and compound dilution plate were sampled and diluted in 90% Methanol 10% Water with 0.1% Formic acid and 0.4 μ M glyburide as an analytical standard to precipitate the protein. The solutions as well as the calibration solutions were centrifuged for 30 min at 3000 rpm for protein precipitation. Drug concentrations in the donor and acceptor compartments were measured by liquid chromatography–mass spectrometry (LC-MS/MS). […]
# [4] = Log P (Pion SiriusT3 instrument); type: physicochemical
# Experimental: v/v heat deactivated FBS and 1% v/v penicillin-streptomycin (all from Gibco) and grown for 4 days at 37 °C in an atmosphere of 5% CO 2 and 95% relative humidity. Stock solutions of the compounds were prepared in dimethyl sulfoxide (DMSO) (10 mM), and each compound was dosed in triplicate at a final concentration of 10 μM in Hanks’ balanced salt solution (HBSS) at pH 7.4 containing 10 mM 4-(2-hydroxyethyl)-1-piperazineethanesulfonic acid (HEPES) and 0.02% w/v bovine serum albumin (BSA). A solution without the compounds and containing 5% BSA was added to the acceptor. Bafilomycin (100 nM) was added to both compartments. Cells were incubated with the compounds for 2 h at 37 °C, and flux was measured in the apical-to-basolateral direction. Aliquots from the apical, basal and compound dilution plate were sampled and diluted in 90% Methanol 10% Water with 0.1% Formic acid and 0.4 μ M glyburide as an analytical standard to precipitate the protein. The solutions as well as the calibration solutions were centrifuged for 30 min at 3000 rpm for protein precipitation. Drug concentrations in the donor and acceptor compartments were measured by liquid chromatography–mass spectrometry (LC-MS/MS).
# The Log P was measured using a Pion SiriusT3 instrument.
# To determine the stability of the bicyclo[2.2.0] system, the following experiments were performed:
# Aqueous stability at two different pH:
# SI-48 was first saponified to avoid the possibility of acid- or base-mediated hydrolysis:
# Two solutions of pH = 2 and pH = 10 were prepared with 1M solutions of HCl and NaOH. Then, SI-49 was stirred in two separate solutions (1 mL of each of the aqueous solution and 0.80 mL of MeCN for each).
# LC/MS for both durations. […]
SMILES,Rat Clint [1],solubility at 16 h [2],"Papp at 2 h, 10 μM [3]",logP [4]
O=C(C1CC2CC(CO)C21)N1CCCCC1 (stereo not drawn) [compound 35],15 mL/min,> 200 µM,29 ×10⁻⁶ cm/s,0.74
O=C(c1cccc(CO)c1)N1CCCCC1 [compound 36],< 10 mL/min,> 200 µM,32 ×10⁻⁶ cm/s,0.41
O=C(C1CCCC(CO)C1)N1CCCCC1 (stereo not drawn) [compound 37],21 mL/min,> 200 µM,28 ×10⁻⁶ cm/s,1.45
O=C(O)[C@@H]1C[C@H]2C[C@H](C(=O)N3CCCCC3)[C@H]21 [compound 38],< 10 mL/min,180 µM,5 ×10⁻⁶ cm/s,0.98

# Other lines, results leading:
Rat Clint [1],solubility at 16 h [2],"Papp at 2 h, 10 μM [3]",logP [4],SMILES
< 10 mL/min,> 200 µM,4 ×10⁻⁶ cm/s,1.15,O=C(O)c1cccc(C(=O)N2CCCCC2)c1 [compound 39]
< 10 mL/min,200 µM,4 ×10⁻⁶ cm/s,0.95,O=C(O)C1CCCC(C(=O)N2CCCCC2)C1 (stereo not drawn) [compound 40]

# Source: paper PMC9561113, “[2]-Ladderanes as isosteres for meta-substituted aromatic rings and rigidified cyclohexanes” (Nature Communications, 2022)
